Test results as given in a melting point compilation (Tetko et al.; mined from patent text by program, amines drawn as free bases though some values may be those of a salt).
Residues, ends and D or L forms follow the SMILES beside them. *: point of attachment. Boc = CC(C)(C)OC(=O)*; OBn = c1ccc(CO*)cc1

| SMILES | melting point |
| --- | --- |
| C1CCN(c2nc(N3CCCC3)c3nc(N4CCCCC4)nc(N4CCCC4)c3n2)CC1 | 254 to 256 °C |
| CCC(OC)(c1ccc(OCc2cc3ccccc3[nH]c2=O)c(OC)c1)c1nccs1 (stereo not given) | 170 to 171 °C |
| CCCCOCCOc1ccc(-c2ccc3c(c2)C=C(C(=O)O)CCN3CCCOC)cc1 | 99 to 101 °C |
| COc1ccc(C(c2ccccc2)(c2ccc(OC)cc2)C(F)(F)F)cc1 | 120 to 121 °C |
| Cc1cc(-c2nc3ccc(CN4CCN(C)CC4)cc3c(=O)[nH]2)cc(C)n1 | 229 to 230 °C |
| COc1nc(NCCc2ccc(OC(F)F)cc2)nc(-c2ccc(Cl)c(C(C)(C)O)c2)n1 | 127 °C |
| CC(C)c1cccc(Cl)c1Oc1nnc(Cl)cc1Cl | 90 to 91 °C |
| CCOC(=O)c1cn(-c2ccc(C(F)(F)F)cn2)nc1C(C)CC (stereo not given) | 63 to 64 °C |
| O=[N+]([O-])c1nc(CC(O)C2CO2)c[nH]1 (stereo not given) | 90 to 92 °C |
| CN(CCN=C(NC#N)NCCSCc1csc(NC(=N)N)n1)CCC(c1ccccc1)c1ccccn1 (stereo not given) | 115 to 116 °C |
| COc1ccccc1C(=O)NCC(=O)N1c2ccccc2N(Cc2ccccc2)C(=O)C2CCCC21 (stereo not given) | 187 to 188 °C |
| COc1ccc2c(c1)C(c1ccc(OCCN(C)C)cc1)c1c-2ccc2ccccc12 (stereo not given) | 159 to 160 °C |
| Nc1cc(=O)n(Cc2ccc(Br)c(Cl)c2)[nH]1 | 145 to 146 °C |
| CC1CC(=O)NN=C1c1ccc(NC(=NC#N)NCc2ccccc2)cc1 (stereo not given) | 228 to 229 °C |
| CC1CCC(C(=O)Nc2ccc(-c3ncc(-c4ccc(NC(=O)C5CCCCC5C)cc4)[nH]3)cc2)CC1 (stereo not given) | 218 to 220 °C |
| CC1OC(=O)N(Cc2ccccc2[N+](=O)[O-])C1=O (stereo not given) | 114 °C |
| O=C1c2cccc(O)c2C(=O)N1CC(=O)N1c2ccccc2N(Cc2ccccc2)C(=O)[C@H]2CCC[C@H]21 (relative stereo) | 272 °C |
| Cc1ccc(CN[C@H](CO)Cc2ccccc2)cc1 | 125 to 127 °C |
| O=S(=O)(c1ccc(Nc2nccc(Nc3ccc(F)cc3)n2)cc1)N(CCNCC(F)(F)F)C1CCN(Cc2ccccc2)CC1 | 137 to 138 °C |
| CCOC(=O)/C=C/c1cnn(Cc2ccccc2)c1-c1ccccc1 | 62 to 63 °C |
| O=C(Nc1ccccc1)c1ccc(Cn2cnc3ccccc32)cc1 | 214 to 216 °C |
| CCCCCC(CC(=O)Nc1cc(C(N)=O)ccc1C(C)(C)C)c1cccc(OC)c1OC (stereo not given) | 89 to 90 °C |
| CCNC(=O)N(CCO)Cc1cc([N+](=O)[O-])ccc1OC | 93 to 94 °C |
| O=C1CCCCC1C(C[N+](=O)[O-])c1ccccc1Cl (racemic) | 107 to 108 °C |

| SMILES | melting point |
| --- | --- |
| CN1CCN(c2cc(Cl)cc3[nH]c(=O)n(Cc4ccccc4)c(=O)c23)CC1 | 208 to 210 °C |
| CCC1c2cccn2-c2ccc(F)cc2N1S(=O)(=O)c1ccc(OC)c(Cl)c1 (stereo not given) | 152 to 154 °C |
| Clc1ccc(Oc2ccccc2Oc2ncc(Br)cn2)nc1 | 93 to 95 °C |
| CC(C)(C)OC(=O)NCC(=O)NCC(=O)OCc1ccccc1 (Boc-Gly-Gly-OBn) | 83 °C |
| COC(=O)C[C@H]1CC[C@H](n2nc(-c3c(-c4ccccc4)nn4ccccc34)ccc2=O)C1 (relative stereo) | 105 to 107 °C |
| CC(=O)Oc1cc2c(c([N+](=O)[O-])c1OC(C)=O)C(=O)C(C)(C)CC2 | 145 to 147 °C |
| COc1ccc(N2c3ccccc3Sc3ccccc32)cc1 | 173 to 176 °C |
| Cc1cc2c(cc1S(N)(=O)=O)S(=O)(=O)NC(C1CCCCC1)N2 (stereo not given) | 231 to 233 °C |
| Cc1ccc(S(=O)(=O)Nc2ccccc(=O)c2O)cc1 | 177 to 179 °C |
| O=S(=O)(NC(CO)(CO)CO)c1cncc(C#Cc2cnn3c(C(F)(F)F)cc(-c4ccc(C(F)(F)F)cc4)nc23)c1 | 230 to 232 °C |
| CC1CC(=O)NN=C1c1ccc2c(c1)N(C1CCCC1)C(=O)C(C)O2 (stereo not given) | 220 to 223 °C |
| COn1c(-c2ccccc2)nc2cnc3ccccc3c21 | 194 to 195 °C |
| CS(=O)(=O)c1ccc(-n2nc(C(F)(F)F)cc2-c2ccc(-n3ccnc3)cc2)cc1 | 183 to 184 °C |
| O=C1C(c2ccccc2)=C(c2ccccc2Cl)C(=O)N1c1ccc(Cl)cc1 | 46 °C |
| CCOC(=O)c1c(C)nc(N(C)N)c([N+](=O)[O-])c1Cl | 159 to 161 °C |
| Nc1ccc(S(=O)(=O)Nc2ccc(C(O)(C(F)(F)F)C(F)(F)F)cc2)cc1 | 160 to 161 °C |
| COc1ccc(CC(S)C(N)=O)cc1C(=O)NCc1ccc(C(F)(F)F)cc1 (stereo not given) | 159 to 161 °C |
| Cc1ccc(-c2cc(C(F)(F)F)n3ncc(-c4cccnc4)c3n2)cc1C(F)(F)F | 182 °C |
| O=C(Nc1ccncn1)Nc1cccc2c1C1CCCCN1C2=O (stereo not given) | 218 °C |
| Cc1cc(OC(C)c2ccccc2)ccc1C(C)N(O)C(N)=O (stereo not given) | 157 to 158 °C |
| COC(=O)c1ccccc1S(=O)(=O)NC(=O)Nc1nc(C)cc(CF)n1 | 181 to 186 °C |
| COc1ccc(C2=NN(Cc3ccc(NC(=O)c4cccnc4)cc3)C(=O)CC2)cc1OC | 184 °C |
| N#Cc1ccc(-c2c[nH]nc2C(F)(F)F)cc1SCC1CCC1 | 102 to 103 °C |
| CCCc1nc(C=Cc2ccccc2)c(C(=O)O)n1Cc1cc2c(cc1Cl)OCO2 | 230 °C |

| SMILES | melting point |
| --- | --- |
| Cc1cc(-c2cnn3c(C(F)(F)F)cc(-c4ccc(Cl)c(C)c4)nc23)ccn1 | 240 °C |
| C=CC(O)c1cc(O)ccc1[N+](=O)[O-] (stereo not given) | 126 to 130 °C |
| O=C(NCCO)c1cnccn1 | 125 °C |
| Oc1ccc(Oc2ncc(Cl)cc2F)cc1 | 90 to 92 °C |
| OC(Cn1cncn1)(c1ccc(F)cc1F)C1(SC(F)(F)F)CC1 (stereo not given) | 103 °C |
| N=C(Nc1ccc(Cl)cc1)NC1CCCCC1 | 187 to 190 °C |
| CS(=O)(=O)c1c(C(=O)NN=Cc2ccc(Cl)cc2)[nH]c2ccccc12 | > 280 °C |
| CCCCCCCCCCCCC(=O)c1c[nH]c(C2(OC)OCCSSO2)c1 (stereo not given) | 77 to 78 °C |
| CS(=O)(=O)Nc1ccc(OCCBr)c(Cl)c1 | 96 to 98 °C |
| CNS(=O)(=O)c1ccc(C2=NC(C)(C)Cc3cc(OC)c4c(c32)CC(C)(C)O4)cc1 | 146 to 148 °C |
| Cc1ccc(C(=O)Nc2cccc(C(F)(F)F)c2)cc1Br | 157 to 158 °C |
| Cc1ccc2c(C3=C(c4cn(C)c5ccccc45)C(=O)NC3=O)cn(C)c2c1 | 264 to 266 °C |
| CCCCc1c(NCCCO)cnn(C(C)(C)C)c1=O | 106 to 108 °C |
| Cc1cccc(C(=O)NC(C)(C(N)=S)C(C)C)c1 (stereo not given) | 108 to 110 °C |
| O=C1Nc2ccc(-c3ccc(C=NO)c(F)c3)cc2C12CCCCC2 | 240 to 242 °C |
| CNc1snc(C)c1[N+](=O)[O-] | 153 °C |
| CC(CNC(=O)CN1C(=O)CCC1C)N1CCCCC1 (stereo not given) | 111 to 112 °C |
| COc1ccc([C@@H]2Cc3c(Cl)cccc3NC(=O)[C@@H]2O)cc1 | 191 to 193 °C |
| C[C@H](C(=O)O)[C@H](O)CCCCc1ccccc1 | 75 to 77 °C |
| CSC1=N/C(=C\c2c[nH]c3ncc(Cl)cc23)C(=O)N1 | > 410 °C |
| CC(C)(C)C1=CC(=CC#Cc2ccc(C(=O)O)cc2)C=C(C(C)(C)C)C1=O | 216 to 218 °C |
| CCOC(=O)C1(C(=O)Nc2ccc(Cl)cc2CC)CC1 | 77 to 80 °C |
